The source of these data is publication PMC10470909, “cis-Decalin-containing tetramic acids as inhibitors of insect steroidogenic glutathione S-transferase Noppera-bo” (PLOS ONE, 2023).

“Also recorded” adds a separate entry of the source. Like-named read-outs stand apart in the source and are kept apart here. Bounds are passed on as bounds.

For data set [1], the system named is Aspergillus fumigatus Af293. The data set can be described thus: Antimicrobial assay, A. fumigatus. It is filed as cell-based.
Data set [2] relates to Plasmodium falciparum 3D7. The data set can be described thus: Antimalarial assay, P. falciparum. It is filed as cell-based.
The subject of a further data set is Escherichia coli HO141. The data set can be described thus: Antimicrobial assay, E. coli. It is filed as cell-based.
Data set [3] relates to mitochondrial respiration in HeLa cells. As to the kind of experiment: Measurement of mitochondrial respiration (OCR/ECAR, Seahorse XFe96 extracellular flux analyzer). The conditions noted are these: 6 min after sample treatment.
Method: Changes in oxygen consumption rate (OCR) and extracellular acidification rate (ECAR) were measured using a Seahorse XFe96 analyzer (Agilent, CA, USA).
To confirm this, the effect of 1 on energy metabolism was evaluated using an extracellular flux analyzer, which can simultaneously measure two metabolic properties: oxygen consumption rate (OCR) for an indicative of OXPHOS and extracellular acidification rate (ECAR) for that of glycolysis [20].
Percentage changes in OCR and ECAR (relative to their respective baseline values) induced by test compounds were calculated from S14 Fig. Each data point represents the mean ± standard deviation value at 6 min after sample treatment (n = 3). Note that decreasing OCR and increasing ECAR is a typical phenotype characteristic to mitochondrial respiration inhibitors [20].
Real-time measurements of the OCR and ECAR in HeLa cells were performed after treating the cells with different concentrations of the test samples. To perform the Seahorse XF Cell Mito Stress Test, the cells were treated with oligomycin A (OMA, 1 μM), FCCP (0.125 μM), and rotenone/antimycin A (R/A, 1 μM each) at the indicated times. Data are mean ± s.d. (n = 3 technical replicates) from one representative experiment out of three independent experiments.
Data set [4] in a line: In vitro cytotoxicity, HeLa. The data set is classed as cell-based, human. The following applies: human, HeLa cells (human cervical epidermoid carcinoma cell line). Here is the method: (§1) In vitro cytotoxicity and antimicrobial assays were conducted as previously reported.
Data set [5] relates to Staphylococcus aureus 209. The data set can be described thus: Antimicrobial assay, S. aureus. It is filed as cell-based.
Data set [6] in a line: In vitro cytotoxicity, src^ts-NRK. The data set is classed as cell-based, rat. The following applies: rat; src^ts-NRK cells. Here is the method: as §1
A further data set concerns HIV-1 integrase. Details: method as in earlier work. The conditions noted are these: cited from earlier work.
Data set [7] in a line: In vitro cytotoxicity, HL-60. It is filed as cell-based. The following applies: human, HL-60 cells (human promyelocytic leukemia cell line). Here is the method:
as §1

In data set [8] the test system is Pyricularia oryzae kita-1. The data set can be described thus: microbe, parasite or virus in culture. The following applies: for IC50: Pyricularia oryzae, KITA1, read-out: Antimicrobial activity (IC50, μM) Po. It is filed as cell-based.
The next data set has as its system Candida albicans JCM1542. The data set can be described thus: Antimicrobial assay, C. albicans. It is filed as cell-based.
Data set [9] concerns HeLa, human cervical epidermoid carcinoma cell line. The data set can be described thus: In vitro cytotoxicity, HeLa. The data set is classed as cell-based. The conditions noted are these: HeLa cells. Here is the method:
as §1

The subject of data set [10] is src^ts-NRK, normal rat kidney cells infected with ts25. As to the kind of experiment: In vitro cytotoxicity, src^ts-NRK. It is filed as cell-based. Here is the method: as §1
A short description of a further data set: Solubility in solvents. The conditions noted are these: hexane, CHCl3, EtOAc, acetone, MeOH, MeCN, DMSO, or H2O. The data set is classed as physicochemical. Here is the method: Its molecular formula was determined as C24H31NO6 using HRESITOFMS.
The mark [11] stands for this setting: Aspergillus fumigatus Af293, read-out: Antimicrobial activity (IC50, μM) Af.
Setting [12] is: Plasmodium falciparum 3D7, read-out: Antimicrobial activity (IC50, μM) Pf.
Where [13] appears, read: Escherichia coli HO141, read-out: Antimicrobial activity (IC50, μM) Ec.
The mark [14] stands for this setting: Staphylococcus aureus 209, read-out: Antimicrobial activity (IC50, μM) Sa.
Where [15] appears, read: Candida albicans JCM1542, read-out: Antimicrobial activity (IC50, μM) Ca.
[16] abbreviates: Aspergillus fumigatus, AF293, read-out: Antimicrobial activity (IC50, μM) Af.
Setting [17] is: Plasmodium falciparum, 3D7, read-out: Antimicrobial activity (IC50, μM) Pf.
The mark [18] stands for this setting: Escherichia coli, HO141, read-out: Antimicrobial activity (IC50, μM) Ec.
Setting [19] is: Staphylococcus aureus, 209, read-out: Antimicrobial activity (IC50, μM) Sa.
[20] abbreviates: Candida albicans, JCM1542, read-out: Antimicrobial activity (IC50, μM) Ca.

A word on the IC50: it is the concentration needed to halve the response being measured. For the compound `C/C=C/[C@@H]1C=C[C@@H]2C[C@H](C)CC[C@H]2[C@]1(C)C(=O)C1=C(O)[C@H](CO)N(C)C1=O` [Compound 1, equisetin], the IC50 in [1] (setting [11]) worked out at 29 µM; in data set [2] (setting [12]), 12 µM; with Escherichia coli HO141 (setting [13]), 13 µM; in [4], 35 µM; in data set [5] (setting [14]), 1.4 µM; in data set [6] it was 20 µM. The IC50 in [7] is 12 µM; in data set [8], 0.15 µM; in the data set with Candida albicans JCM1542 (setting [15]), 29 µM. Further, the “change in extracellular acidification rate (ECAR)” value in [3] is recorded as “increase in ECAR”. The “change in oxygen consumption rate (OCR)” value in [3] is recorded as “decrease in OCR”. The “HIV-1 integrase inhibitory activity (in words)” value in the data set with HIV-1 integrase was “inhibit HIV-1 integrase activity approximately equally”.

In the case of `C/C=C/C=C/[C@H]1C(C)=C[C@H]2C[C@@H](C)CC[C@@H]2[C@@]1(C)C(=O)C1=C(O)[C@@H](CO)N(C)C1=O` [Compound 2, phomasetin], the IC50 in [1] (setting [16]) worked out at 21 µM; in data set [2] (setting [17]) it was 1.8 µM; with Escherichia coli HO141 (setting [18]), 1.3 µM; in data set [4], 6.1 µM; in data set [5] (setting [19]) it was 0.14 µM; in [6] it was 11 µM. The results for the IC50 (in data set [7]; in [8]; with Candida albicans JCM1542 (setting [20])) were 3.4 µM, 0.044 µM and 21 µM, respectively. For the same compound, the “HIV-1 integrase inhibitory activity (in words)” value in the data set on HIV-1 integrase is listed as “inhibit HIV-1 integrase activity approximately equally”.

For `C/C=C/[C@H]1C=C[C@H]2C[C@H](C)CC[C@H]2[C@]1(C)C(=O)C1=C(O)[C@H](CO)N(C)C1=O` [Compound 3, cis-equisetin], the IC50 in [1] (setting [11]) was 40 µM; in data set [2] (setting [12]), 13 µM; with Escherichia coli HO141 (setting [13]) it was 20 µM; in [4], 46 µM; in [5] (setting [14]) it was 5.6 µM; in [6], 35 µM. Besides, the IC50 in data set [7] worked out at 14 µM; in data set [8] it was 0.46 µM; with Candida albicans JCM1542 (setting [15]), 40 µM. Besides, the “fold lower activity compared with that of 1, S. aureus” value in [5] (growth inhibitory activity against S. aureus, relative to 1) stood at 4 fold. In addition, the “fold lower activity compared with that of 1, P. oryzae” value in data set [8] (growth inhibitory activity against P. oryzae, relative to 1) is 3 fold.

Regarding `C/C=C/C=C/[C@@H]1C(C)=C[C@@H]2C[C@@H](C)CC[C@@H]2[C@@]1(C)C(=O)C1=C(O)[C@@H](CO)NC1=O` [Compound 4, N-demethyl-cis-phomasetin], the IC50 was 58 µM in [1] (setting [16]); 13 µM in data set [2] (setting [17]); 1.5 µM in the data set with Escherichia coli HO141 (setting [18]); more than 75 µM in data set [4]; 6 µM in data set [5] (setting [19]); more than 75 µM in data set [6]. Also, the IC50 in data set [7] came out at 22 µM; in data set [8] it was 2 µM; in the data set on Candida albicans JCM1542 (setting [20]), 9 µM. Also, in [9], the “cytotoxicity against HeLa (in words)” value is reported as “no cytotoxicity”. The “cytotoxicity against src^ts-NRK (in words)” value in data set [10] was “no cytotoxicity”.

With `C/C=C/C=C/[C@H]1C(C)=C[C@H]2C[C@@H](C)CC[C@@H]2[C@@]1(C)C(=O)C1=C(O)[C@@H](CO)NC1=O` [Compound 5, N-demethylphomasetin], the IC50 came to 9.8 µM in data set [1] (setting [16]); 4.8 µM in [2] (setting [17]); 2.5 µM in the data set on Escherichia coli HO141 (setting [18]); 40 µM in data set [4]; 0.2 µM in [5] (setting [19]); 63 µM in [6]. Further, the IC50 was found to be 11 µM in data set [7], 1.3 µM in data set [8] and 3.8 µM with Candida albicans JCM1542 (setting [20]).

Turning to `C/C=C/C=C/[C@@H]1C(C)=C[C@@H]2C[C@@H](C)CC[C@H]2[C@]1(C)C(=O)C1=C(O)C(CO)NC1=O` (some centres unmarked) [Compound 6], the IC50 was more than 70 µM in data set [1] (setting [16]); 23 µM in data set [2] (setting [17]); more than 70 µM with Escherichia coli HO141 (setting [18]); more than 70 µM in data set [4]; 3.8 µM in data set [5] (setting [19]); more than 70 µM in data set [6]. Besides, the IC50 in [7] came out at 12 µM; in [8], 5.5 µM; in the data set with Candida albicans JCM1542 (setting [20]) it was 65 µM.

Consider `CC1=C[C@H]2C[C@@H](C)CC[C@@H]2[C@@](C)(C(=O)C2=C(O)[C@@H](CO)N(C)C2=O)[C@H]1/C=C/C=C/CO` [Compound 7], for which the IC50 is more than 70 µM in data set [1] (setting [16]); 4.7 µM in data set [2] (setting [17]); 21 µM in the data set with Escherichia coli HO141 (setting [18]); 28 µM in [4]; 1.4 µM in data set [5] (setting [19]); 22 µM in [7]. Further, the half-inhibitory concentration (IC50) in [8] was 12 µM; in the data set on Candida albicans JCM1542 (setting [20]), more than 70 µM.

Regarding `CC1=C[C@@H]2C[C@@H](C)CC[C@@H]2[C@@](C)(C(=O)C2=C(O)[C@@H](CO)NC2=O)[C@@H]1/C=C/C=C/C(=O)O` [Compound 8], the IC50 in data set [1] (setting [16]) is more than 70 µM; in [2] (setting [17]) it was 26 µM; in the data set with Escherichia coli HO141 (setting [18]), 28 µM; in data set [4], more than 70 µM; in data set [5] (setting [19]), 63 µM; in [6], more than 70 µM. Further, the IC50 (in [7]; in [8]; in the data set on Candida albicans JCM1542 (setting [20])) was more than 70 µM throughout. In addition, the “solubility (in words)” value in the data set “Solubility in solvents” is recorded as “not soluble in any solvent; also recorded: too low”.
